Test results as given in publication PMC11858653, “Design, Synthesis and Bioactive Evaluation of Topo I/c-MYC Dual Inhibitors to Inhibit Oral Cancer via Regulating the PI3K/AKT/NF-κB Signaling Pathway” (Molecules, 2025).

Experiments:
[1] = system: SV-HUC-1; test: MTT assay, normal cell line SV-HUC-1; assay type: cell-based; conditions: SV-HUC1, 48 h, mean ± SD
Protocol: (§1) Having evaluated their Topo I inhibitory activity, the antiproliferative activity of the target compounds against some common human cancer cell lines (NCI-H460, A549, ACHN, Cal27 and MGC-803) and one normal cell line (SV-HUC-1) was tested via an MTT assay. TPT, the first Topo I inhibitor approved in clinics, and cisplatin (CDDP), a commonly selected anticancer drug for treating head and neck malignancies, were used as the positive controls.
(§2) Human oral cancer Cal27 cells were seeded in 96-well plates and incubated overnight in 180 μL of medium containing 10% Fetal Bovine Serum (Gibco, San Francisco, CA, USA). […] Then, 10 μL of 5 mg/mL MTT solution was added to each well and incubated at 37 °C for 4 h. After 4 h of incubation at 37 °C, the MTT-containing medium was removed and DMSO was added to each well and the absorbance at 570 nm and 630 nm was measured using a microplate reader (CYTATION 3, Burton, Westwood, NJ, USA). Survival/% = (mean OD of experimental group/mean OD of control group) × 100%. Each test was repeated at least three times.

[2] = system: Cal27; test: MTT antiproliferative assay, Cal27; assay type: cell-based, human; conditions: Homo sapiens, CAL-27, 48 h, mean ± SD
Protocol: as §1, §2

[3] = system: ACHN; test: MTT antiproliferative assay, ACHN; assay type: cell-based, human; conditions: Homo sapiens, ACHN, 48 h, mean ± SD
Protocol: as §1, §2

[4] = system: NCI-H460; test: MTT antiproliferative assay, NCI-H460; assay type: cell-based, human; conditions: Homo sapiens, NCI-H460, 48 h, mean ± SD
Protocol: as §1, §2

[5] = system: MGC-803; test: MTT antiproliferative assay, MGC-803; assay type: cell-based, human; conditions: Homo sapiens, MGC-803, 48 h, mean ± SD
Protocol: as §1, §2

[6] = system: A549; test: MTT antiproliferative assay, A549; assay type: cell-based, human; conditions: Homo sapiens, A549, 48 h, mean ± SD
Protocol: as §1, §2

[7] = target: T1, Topo I (Homo sapiens, UniProt P11387); test: Topo I inhibitory activity, agarose gel electrophoresis (pBR322); assay type: biochemical; conditions: 20 μM
T1 sequence (P11387 1-765): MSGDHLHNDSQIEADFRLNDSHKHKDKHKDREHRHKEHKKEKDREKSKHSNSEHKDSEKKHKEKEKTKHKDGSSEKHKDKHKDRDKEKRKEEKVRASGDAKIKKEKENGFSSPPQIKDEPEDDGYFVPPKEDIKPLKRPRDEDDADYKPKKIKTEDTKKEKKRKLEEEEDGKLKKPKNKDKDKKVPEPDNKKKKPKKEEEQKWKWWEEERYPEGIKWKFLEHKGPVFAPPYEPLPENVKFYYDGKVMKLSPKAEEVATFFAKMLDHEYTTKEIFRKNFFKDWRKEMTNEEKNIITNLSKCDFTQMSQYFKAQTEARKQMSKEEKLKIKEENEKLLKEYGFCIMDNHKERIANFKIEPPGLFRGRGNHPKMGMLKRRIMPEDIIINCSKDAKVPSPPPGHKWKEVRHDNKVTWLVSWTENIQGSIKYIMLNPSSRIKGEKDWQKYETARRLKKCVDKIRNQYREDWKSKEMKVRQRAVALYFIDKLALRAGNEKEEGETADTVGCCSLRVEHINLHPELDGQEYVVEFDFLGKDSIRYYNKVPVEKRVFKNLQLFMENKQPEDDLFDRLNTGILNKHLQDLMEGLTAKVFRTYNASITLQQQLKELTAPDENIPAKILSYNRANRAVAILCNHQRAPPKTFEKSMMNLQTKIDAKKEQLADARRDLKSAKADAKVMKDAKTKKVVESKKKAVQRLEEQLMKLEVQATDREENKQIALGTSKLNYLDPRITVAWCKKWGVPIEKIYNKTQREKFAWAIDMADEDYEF
Protocol: In this assay, 250 ng of pBR322 plasmid DNA, different concentrations of the compounds to be tested, 0.1% BSA 1 μL, 10× Topo I buffer, Topo I and add 1× TAE buffer were mixed to a final volume of 20 μL. The reaction was carried out for 30 min at 37 °C in a water bath. After the reaction was terminated, 4 μL of each of the 6× DNA Sampling Buffers were added to the gel. The pBR322 plasmid DNA alone was used as a negative control, and camptothecin was used as a positive control. Finally, the samples were loaded onto the gels and electrophoresed for about 1.5 h. After electrophoresis, the gel blocks were incubated in 1 mg/L ethidium bromide (EB) for 30 min and then visualized on the gel system.

SMILES | IC50 [1] [µM] | IC50 [2] [µM] | IC50 [3] [µM] | IC50 [4] [µM] | IC50 [5] [µM] | IC50 [6] [µM] | nicked DNA in the lane (DNA breakage) [7]
CN(C)CCNc1nc2c(c3ccccc13)S(=O)(=O)c1ncccc1-2 [7aa, 5-((2-(Dimethylamino)ethyl)amino)pyrido[3′,2′:4,5] thieno[3,2-c]isoquinoline 11,11-dioxide] | 20.8 ± 3.83 | 14.4 ± 4.75 | 20.5 ± 4.82 | 59 ± 3.81 | 21.6 ± 0.64 | > 100 | –
CCN(CC)CCNc1nc2c(c3ccccc13)S(=O)(=O)c1ncccc1-2 [7ab, 5-((2-(Diethylamino)ethyl)amino)pyrido[3′,2′:4,5] thieno[3,2-c]isoquinoline 11,11-dioxide] | 21.6 ± 3.19 | 23.8 ± 1.08 | > 100 | 59.7 ± 9.65 | 47 ± 2.43 | 42.6 ± 1.89 | –
O=S1(=O)c2ncccc2-c2nc(NCCN3CCCC3)c3ccccc3c21 [7ac, 5-((2-(Pyrrolidin-1-yl)ethyl)amino)pyrido[3′,2′:4,5] thieno[3,2-c]isoquinoline 11,11-dioxide] | 14.2 ± 2.77 | 14.6 ± 2.12 | 16.9 ± 3.27 | 12 ± 4.2 | 15.2 ± 3.41 | 9.69 ± 2.08 | nicked DNA could be clearly observed
O=S1(=O)c2ncccc2-c2nc(NCCN3CCOCC3)c3ccccc3c21 [7ad, 5-((2-Morpholinoethyl)amino)pyrido[3′,2′:4,5]thieno[3,2-c]isoquino-line 11,11-dioxide] | > 100 | > 100 | > 100 | > 100 | > 100 | > 100 | –
O=S1(=O)c2ncccc2-c2nc(NCCN3CCCCC3)c3ccccc3c21 [7ae, 5-((2-(Piperidin-1-yl)ethyl)amino)pyrido[3′,2′:4,5] thieno[3,2-c]isoquinoline 11,11-dioxide] | 15.2 ± 2.43 | 7.96 ± 2.24 | 61.7 ± 4.9 | 16.9 ± 0.78 | 14.2 ± 2.46 | > 100 | –
CN(C)CCCNc1nc2c(c3ccccc13)S(=O)(=O)c1ncccc1-2 [7af, 5-((3-(Dimethylamino)propyl)amino)pyrido[3′,2′:4,5] thieno[3,2-c]isoquinoline 11,11-dioxide] | > 100 | 10.6 ± 0.96 | 14.7 ± 0.15 | 64.5 ± 2.88 | 9.84 ± 1.32 | 13.8 ± 2.53 | nicked DNA could be clearly observed
CCN(CC)CCCNc1nc2c(c3ccccc13)S(=O)(=O)c1ncccc1-2 [7ag, 5-((3-(Diethylamino)propyl)amino)pyrido[3′,2′:4,5] thieno[3,2-c]isoquinoline 11,11-dioxide] | 75.8 ± 2.79 | 22.5 ± 1.84 | 26.9 ± 0.72 | 57.8 ± 0.65 | 24.37 ± 0.18 | 30 ± 0.31 | nicked DNA could be clearly observed
O=S1(=O)c2ncccc2-c2nc(NCCCN3CCOCC3)c3ccccc3c21 [7ai, 5-((3-Morpholinopropyl)amino)pyrido[3′,2′:4,5] thieno[3,2-c]isoquinoline 11,11-dioxide] | > 100 | > 100 | > 100 | > 100 | > 100 | > 100 | –
O=S1(=O)c2ncccc2-c2nc(NCCCn3ccnc3)c3ccccc3c21 [7aj, 5-((3-(1H-Imidazol-1-yl)propyl)amino)pyrido[3′,2′:4,5]thieno[3,2-c]isoquinoline 11,11-dioxide] | > 100 | > 100 | > 100 | > 100 | > 100 | > 100 | –
